Results published in patent US12492181B2, “Gem-disubstituted piperidine melanocortin subtype-2 receptor (MC2R) antagonists and uses thereof” (Crinetics Pharmaceuticals, Inc., priority 2019, dated 2025).

Biological target: T1, hMC2 receptor (crude hMC2R membranes from CRE-bla-CHO-K1 cells stably expressing hMC2 receptor and hMRAP accessory protein) (Homo sapiens, UniProt Q01718)
T1 construct: crude membrane fractions
Assay: hMC2 membrane binding assay ([125I]ACTH (1-39) Tyr23, SPA)
Conditions: displacement of 0.2 nM [125I]ACTH (1-39) Tyr23 from hMC2R membranes, 1.5 hours at room temperature; read-out: MC2R binding potency
In short: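 Ki values come from non-linear regression of SPA scintillation counts, with compounds displacing [125I]ACTH(1-39) Tyr23. Membranes come from CRE-bla-CHO-K1 cells stably expressing hMC2 receptor together with hMRAP. They are preincubated with WGA-coated PVT SPA beads in 50 mM HEPES pH 7.4 with 0.20% BSA, Mg2+, Ca2+ and protease inhibitors.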

T1 sequence (Q01718 whole entry): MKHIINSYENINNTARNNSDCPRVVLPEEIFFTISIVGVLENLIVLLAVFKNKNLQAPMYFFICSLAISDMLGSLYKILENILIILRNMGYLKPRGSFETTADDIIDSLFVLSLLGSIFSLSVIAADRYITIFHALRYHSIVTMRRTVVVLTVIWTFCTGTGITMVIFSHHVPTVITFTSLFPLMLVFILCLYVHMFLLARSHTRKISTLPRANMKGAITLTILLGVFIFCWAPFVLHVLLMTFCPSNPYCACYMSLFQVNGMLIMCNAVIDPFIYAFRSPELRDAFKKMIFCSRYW
T1 sequence (Q8TCY5 whole entry partner): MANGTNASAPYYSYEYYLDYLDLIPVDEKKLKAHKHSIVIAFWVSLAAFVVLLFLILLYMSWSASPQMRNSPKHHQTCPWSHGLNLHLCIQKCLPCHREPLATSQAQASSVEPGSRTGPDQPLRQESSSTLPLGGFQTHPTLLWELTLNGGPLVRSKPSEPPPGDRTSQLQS

SMILES: CN1CC[C@](C)(NC(=O)C2(c3ccc(-c4cccn4C)nc3)CCN(c3ccc(C(F)(F)F)cc3C#N)CC2)C1 [Compound 1-253, 1-[2-cyano-4-(trifluoromethyl)phenyl]-N-[(3S)-1,3-dimethylpyrrolidin-3-yl]-4-[6-(1-methyl-1H-pyrrol-2-yl)pyridin-3-yl]piperidine-4-carboxamide]
- Ki: < 10 nM

SMILES: Cn1cccc1-c1ccc(C2(C(=O)NCCCN)CCN(c3ccc(C(F)(F)F)cc3C#N)CC2)cn1 [Compound 1-205, N-(3-aminopropyl)-1-[2-cyano-4-(trifluoromethyl)phenyl]-4-[6-(1-methyl-1H-pyrrol-2-yl)pyridin-3-yl]piperidine-4-carboxamide]
- Ki: 10 to 100 nM

SMILES: CCOc1ncccc1-c1ncc(C2(C(=O)N[C@@H]3CCN(C)C3)CCN(c3ccc(C(F)(F)F)cc3C#N)CC2)cc1F [Compound 1-108, 1-[2-cyano-4-(trifluoromethyl)phenyl]-4-{2′-ethoxy-3-fluoro-[2,3′-bipyridin]-5-yl}-N-[(3R)-1-methylpyrrolidin-3-yl]piperidine-4-carboxamide]
- Ki: < 10 nM

SMILES: CN1CC[C@H](NC(=O)C2(c3ccc(-c4cccc(F)c4C#N)nc3)CCN(c3ccc(C(F)(F)F)cc3C#N)CC2)C1 [Compound 1-148, 4-[6-(2-cyano-3-fluorophenyl)pyridin-3-yl]-1-[2-cyano-4-(trifluoromethyl)phenyl]-N-[(3S)-1-methylpyrrolidin-3-yl]piperidine-4-carboxamide]
- Ki: 10 to 100 nM

SMILES: CCOc1ccccc1-c1ccc(C2(NC(=O)[C@H]3CCN(C)C3)CCN(c3ccc(C(F)(F)F)cc3C#N)CC2)cn1 [Compound 2-27, (3S)—N-{1-[2-cyano-4-(trifluoromethyl)phenyl]-4-[6-(2-ethoxyphenyl)pyridin-3-yl]piperidin-4-yl}-1-methylpyrrolidine-3-carboxamide]
- Ki: < 10 nM

SMILES: COc1ncccc1-c1ncc(C2(C(=O)N[C@H]3CCN(C)C3)CCN(c3ccc(C(F)(F)F)cc3C#N)CC2)cc1F [Compound 1-132, 1-[2-cyano-4-(trifluoromethyl)phenyl]-4-{3-fluoro-2′-methoxy-[2,3′-bipyridin]-5-yl}-N-[(3S)-1-methylpyrrolidin-3-yl]piperidine-4-carboxamide]
- Ki: < 10 nM

SMILES: C[C@@H](CN(C)C)NC(=O)C1(c2ccc(-c3cccn3C)nc2)CCN(c2ccc(C(F)(F)F)cc2C#N)CC1 [Compound 1-261, 1-[2-cyano-4-(trifluoromethyl)phenyl]-N-[(2S)-1-(dimethylamino)propan-2-yl]-4-[6-(1-methyl-1H-pyrrol-2-yl)pyridin-3-yl]piperidine-4-carboxamide]
- Ki: < 10 nM

SMILES: COc1ccc(F)cc1-c1ccc(C2(C(=O)N[C@H]3CCN(C)C3)CCN(c3ccc(C(F)(F)F)cc3C#N)CC2)cn1 [Compound 1-102, 1-[2-cyano-4-(trifluoromethyl)phenyl]-4-[6-(5-fluoro-2-methoxyphenyl)pyridin-3-yl]-N-[(3S)-1-methylpyrrolidin-3-yl]piperidine-4-carboxamide]
- Ki: < 10 nM

SMILES: CCOc1ncccc1-c1ccc(C2(C(=O)N[C@@H]3CCN(C)C3)CCN(c3ccc(C(F)(F)F)cc3C)CC2)cc1 [Compound 1-164, 4-[4-(2-ethoxypyridin-3-yl)phenyl]-1-[2-methyl-4-(trifluoromethyl)phenyl]-N-[(3R)-1-methylpyrrolidin-3-yl]piperidine-4-carboxamide]
- Ki: 10 to 100 nM

SMILES: CCOc1ncccc1-c1ccc(C2(NC(=O)N3CC(NC)C3)CCN(c3ccc(C(F)(F)F)cc3C#N)CC2)cn1 [Compound 2-23, N-{1-[2-cyano-4-(trifluoromethyl)phenyl]-4-{2′-ethoxy-[2,3′-bipyridin]-5-yl}piperidin-4-yl}-3-(methylamino)azetidine-1-carboxamide]
- Ki: < 10 nM

SMILES: CCOc1ncccc1-c1ccc(C2(C(=O)N[C@@H](C)CNC)CCN(c3ccc(C(F)(F)F)cc3C#N)CC2)cn1 [Compound 1-314, 1-[2-cyano-4-(trifluoromethyl)phenyl]-4-{2′-ethoxy-[2,3′-bipyridin]-5-yl}-N-[(2S)-1-(methylamino)propan-2-yl]piperidine-4-carboxamide]
- Ki: < 10 nM

SMILES: CCOc1ncccc1-c1ccc(C2(C(=O)N[C@@H](C)CN(C)C)CCN(c3ccc(C(F)(F)F)cc3C#N)CC2)cn1 [Compound 1-313, 1-[2-cyano-4-(trifluoromethyl)phenyl]-N-[(2S)-1-(dimethylamino)propan-2-yl]-4-{2′-ethoxy-[2,3′-bipyridin]-5-yl}piperidine-4-carboxamide]
- Ki: < 10 nM

SMILES: CN(CCNC(=O)C1(c2ccc(-c3cccn3C)nc2)CCN(c2ccc(C(F)(F)F)cc2C#N)CC1)C1CC1 [Compound 1-266, 1-[2-cyano-4-(trifluoromethyl)phenyl]-N-{2-[cyclopropyl(methyl)amino]ethyl}-4-[6-(1-methyl-1H-pyrrol-2-yl)pyridin-3-yl]piperidine-4-carboxamide]
- Ki: < 10 nM

SMILES: COc1ccccc1-c1ccc(C2(C(=O)N[C@H]3C[C@H]4CC[C@@H]3N4C)CCN(c3ccc(C(F)(F)F)cc3C#N)CC2)cn1 (racemic) [Compound 1-252, rac-1-[2-cyano-4-(trifluoromethyl)phenyl]-4-[6-(2-methoxyphenyl)pyridin-3-yl]-N-[(1S,2S,4R)-7-methyl-7-azabicyclo[2.2.1]heptan-2-yl]piperidine-4-carboxamide]
- Ki: 10 to 100 nM

SMILES: CCOc1ncccc1-c1ccc(C2(C(=O)N[C@H]3CCN(C)C3)CCN(c3ccc(C(C)=O)cc3C#N)CC2)cn1 [Compound 1-36, 1-(4-acetyl-2-cyanophenyl)-4-{2′-ethoxy-[2,3′-bipyridin]-5-yl}-N-[(3S)-1-methylpyrrolidin-3-yl]piperidine-4-carboxamide]
- Ki: < 10 nM

SMILES: CCOc1ncccc1-c1ccc(C2(C(=O)NC3CN(C)CC3O)CCN(c3ccc(C(F)(F)F)cc3C#N)CC2)cn1 (single isomer, unassigned) [Compound 1-41, 1-[2-cyano-4-(trifluoromethyl)phenyl]-4-{2′-ethoxy-[2,3′-bipyridin]-5-yl}-N-[(3S,4S)*-4-hydroxy-1-methylpyrrolidin-3-yl]piperidine-4-carboxamide]
- Ki: < 10 nM

SMILES: CCOc1ncccc1-c1ccc(C2(NC(=O)O[C@@H]3CCN(C)C3)CCN(c3ccc(C(F)(F)F)cc3C#N)CC2)cc1 [Compound 2-12, (3R)-1-methylpyrrolidin-3-yl N-{1-[2-cyano-4-(trifluoromethyl)phenyl]-4-[4-(2-ethoxypyridin-3-yl)phenyl]piperidin-4-yl}carbamate]
- Ki: 10 to 100 nM

SMILES: CCOc1ccccc1-c1ccc(C2(C(=O)NCCN(C)C)CCN(c3ccc(C(F)(F)F)cc3Cl)CC2)cn1 [Compound 1-228, 1-[2-chloro-4-(trifluoromethyl)phenyl]-N-[2-(dimethylamino)ethyl]-4-[6-(2-ethoxyphenyl)pyridin-3-yl]piperidine-4-carboxamide]
- Ki: < 10 nM

SMILES: CCOc1ncccc1-c1ncc(C2(C(=O)NC[C@H](CO)N(C)C)CCN(c3ccc(C(F)(F)F)cc3C#N)CC2)cc1F [Compound 1-334, 1-[2-cyano-4-(trifluoromethyl)phenyl]-N-[(2R)-2-(dimethylamino)-3-hydroxypropyl]-4-{2′-ethoxy-3-fluoro-[2,3′-bipyridin]-5-yl}piperidine-4-carboxamide]
- Ki: < 10 nM

SMILES: CN1CC[C@H](NC(=O)C2(c3ccc(-c4ncoc4C4CC4)nc3)CCN(c3ccc(C(F)(F)F)cc3C#N)CC2)C1 [Compound 1-182, 1-[2-cyano-4-(trifluoromethyl)phenyl]-4-[6-(5-cyclopropyl-1,3-oxazol-4-yl)pyridin-3-yl]-N-[(3S)-1-methylpyrrolidin-3-yl]piperidine-4-carboxamide]
- Ki: 10 to 100 nM
